Test results taken from US20070275967A1, “Pyrazolinols” (BAYER CROPSCIENCE AKTIENGESELLSCHAFT, priority 2003, published 2007).

Assays:
[1] = logP determination by HPLC on reversed-phase column (EEC Directive 79/831 Annex V.A8); type: physicochemical; settings: reversed-phase C18 HPLC column; acidic range (pH 2.3), marked a); 0.1% aqueous phosphoric acid/acetonitrile gradient; reversed-phase C 18; 43° C.
Procedure, shortened: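 Reversed-phase C18 HPLC at 43° C with 10–90% acetonitrile linear gradient, run at pH 2.3 (0.1% phosphoric acid) or pH 7.5 (0.01-molar phosphate buffer). logP derived from retention times by linear interpolation against unbranched alkan-2-ones (C3–C16) of known logP.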

[2] = tested on: larvae of the mustard beetle (Phaedon cochleariae); experiment: Phaedon test (spray treatment); type: in vivo; settings: for activity (kill of beetle larvae): Chinese cabbage disks sprayed, populated with Phaedon cochleariae larvae, result in words; for pest or weed control at 500 g/ha: Phaedon cochleariae, 168 h, active compound concentration 500 g/ha, after 7 d, spray treatment, read-out: Kill rate in % after 7 d
Protocol: Phaedon Test (Spray Treatment) [table] To produce a suitable preparation of active compound, 1 part by weight of active compound is mixed with the stated amounts of solvents and emulsifier, and the concentrate is diluted with emulsifier-containing water to the desired concentration. Disks of Chinese cabbage (Brassica pekinensis) are sprayed with a preparation of active compound of the desired concentration and, once they have dried, populated with larvae of the mustard beetle (Phaedon cochleariae). After the desired period of time, the activity in % is determined. 100% means that all beetle larvae have been killed; 0% means that none of the beetle larvae have been killed.

[3] = tested on: greenhouse red spidermite (Tetranychus urticae); experiment: Tetranychus test (OP-resistant/spray treatment); type: in vivo
Protocol: Tetranychus Test (OP-Resistant/Spray Treatment)
To produce a suitable preparation of active compound, 1 part by weight of active compound is mixed with the stated amounts of solvents and emulsifier, and the concentrate is diluted with emulsifier-containing water to the desired concentration.
Disks of bean leaves (Phaseolus vulgaris) which are infested by all stages of the greenhouse red spidermite (Tetranychus urticae) are sprayed with a preparation of active compound of the desired concentration.
After the desired period of time, the activity in % is determined. 100% means that all spidermites have been killed; 0% means that none of the spidermites have been killed.

[4] = tested on: Adults of Ctenocephalides felis; experiment: Test with cat fleas/oral uptake; type: in vivo; settings: for Kill rate in % after 2 d: active compound concentration 100 ppm, oral uptake; for mortality of fleas: oral uptake from citrated cattle blood, at least 75% kill within 48 h judged effective, result in words
Protocol: Test with Cat Fleas/Oral Uptake
Ctenocephalides Felis (Oral)
To produce a suitable formulation, a suitable solution of active compound is prepared from 10 mg of active compound and 0.5 ml of DMSO. 10 μl of this formulation are added to 2 ml of citrated cattle blood and stirred.
20 unfed adult fleas (Ctenocephalides felis, strain “Georgi”) are placed into a chamber (Ø 5 cm) whose top and bottom are closed with gauze. A metal cylinder whose underside is covered with parafilm is placed onto the chamber. The cylinder contains the 2 ml of blood/active compound formulation which can be taken up by the fleas through the parafilm membrane. Whereas the blood is warmed to 37° C., the temperature in the area of the flea chambers is adjusted to room temperature. Controls are mixed with the same volume of DMSO, without addition of a compound.
After 24 h and 48 h, the mortality in % is determined.
Compounds which effect an at least 75% kill of the fleas within 48 h are judged to be effective.

[5] = tested on: caterpillars of the armyworm (Spodoptera frugiperda); experiment: Spodoptera frugiperda test (spray treatment); type: in vivo
Protocol: Spodoptera Frugiperda Test (Spray Treatment) [table] To produce a suitable preparation of active compound, 1 part by weight of active compound is mixed with, the stated amounts of solvents and emulsifier, and the concentrate is diluted with emulsifier-containing water to the desired concentration. Disks of corn leaves (Zea mays) are sprayed with a preparation of active compound of the desired concentration and, after they have dried, populated with caterpillars of the armyworm (Spodoptera frugiperda). After the desired period of time, the activity in % is determined. 100% means that all caterpillars have been killed; 0% means that none of the caterpillars have been killed.

For `CC(C)C1=NN(C(=S)Nc2ccc(Cl)cc2Cl)C(O)(C(F)(F)F)C1` (centres unmarked) [Example 34], the chromatographic logP [1] was 4.91, the “activity (kill of beetle larvae)” value [2] was “good activity” and the pest or weed control at 500 g/ha [2] was 100%. The pest or weed control at 500 g/ha ([3]; Tetranychus urticae, 120 h, active compound concentration 500 g/ha, after 5 d, OP-resistant, spray treatment, read-out: Kill rate in % after 5 d) was 100%, the “activity (kill of spidermites)” value ([3]; bean leaf disks infested by all stages of Tetranychus urticae (OP-resistant), sprayed, result in words) was “good activity” and the “Kill rate in % after 2 d” value [4] was 100%. The mortality of fleas [4] was “good activity”.

With `CC(C)C1=NN(C(=S)Nc2c(Cl)cccc2Cl)C(O)(C(F)(F)F)C1` (centres unmarked) [Example 29] the chromatographic logP [1] was 4, the “activity (kill of beetle larvae)” value [2] was “good activity” and the pest or weed control at 500 g/ha [2] was 100%. For the same compound, the pest or weed control at 500 g/ha ([5]; Spodoptera frugiperda, 168 h, active compound concentration 500 g/ha, after 7 d, spray treatment, read-out: Kill rate in % after 7 d) was 100%, the “activity (kill of caterpillars)” value ([5]; corn leaf disks sprayed, populated with Spodoptera frugiperda caterpillars, result in words) was “good activity” and the “Kill rate in % after 2 d” value [4] was 100%. The mortality of fleas [4] was “good activity”.
